We go through five molecules from US11993581B2, “Pyridazine compounds for inhibiting Nav1.8” (Lieber Institute, Inc., priority 2018, dated 2024).

SMILES strings stand for the structures. Some results are limits rather than exact numbers.

The experiment addresses T1, human Nav1.8 (hNav1.8) ion channel (Homo sapiens, UniProt Q9Y5Y9).
T1 construct: expressed in transfected cells
Kind of experiment: Nav1.8 inhibition, estimated IC50 (Nav1.8 fluorescence, PatchXpress and/or IonFlux HT automated patch clamp assay). In kind it is cell-based. The settings on record: HEK293 cells stably expressing hNav1.8; determined using one or more of the described methods; read-out: Activity range (estimated IC50). The method, then:
The ability of pyridine carboxamide derivatives exemplified above to inhibit the Nav1.8 channel was determined using one or more of the methods described below.
HEK Nav1.8 β1/β2 Stably Expressing Cell Line
A HEK293 cell line stably expressing the human Nav1.8 (hNav1.8) ion channel with β1/β2 subunits was constructed. The cell line is suitable for IC50 determination in fluorescence and electrophysiological based assays. It is also suitable to conduct mechanism of action pharmacology studies in electrophysiological assays. HEK293 Nav1.8 cells are grown as adherent monolayers in DMEM/high glucose media, 10% fetal bovine serum, Na pyruvate (2 mM), Hepes (10 mM) with selection agents G418 (400 mg/L) and puromycin (0.5 mg/L) at 37 degrees C., 10% CO2.
Nav1.8 Fluorescence Inhibition Assay
Compounds were made up to or supplied as a 10-mM stock solution using DMSO as the vehicle. Concentration-response curves were generated using a Matrix multichannel pipettor. Compound source plates were made by diluting 10 mM compound stocks to create 500 μM (100×) solutions in DMSO in 96-well v-bottom plates. Compounds were then serially diluted in 100% DMSO to generate a 5 point, 4-fold dilution scheme dose response curve. 2 μL of the 100× dose response curves were then added to preincubation and stimulation assay plates. 100 μL of pre-incubation buffer and 200 μl of stimulation buffer was then added to the plates resulting in a final assay test concentration range of 5 μM to 0.02 μM with a final DMSO concentration of 1%.
On the day of assay, plates were washed to remove cell culture media using 2K EBSS buffer (135 mM NaCl, 2 mM KCl, 5 mM Glucose, 2 mM CaCl2, 1 mM MgCl2, 10 mM HEPES, pH 7.4). The Na-sensitive fluorescent dye, Asante Natrium Green-2 (ANG-2) was incubated for 60 min to allow equilibration and then washed with 2K EBSS. Plates were then transferred to a fluorescence plate reader (FLIPR™, Molecular Devices) for fluorescence measurement using an excitation wavelength of 490 nm and an emission wavelength of 565 nm. Compounds were pre-incubated for 5 min at final test concentration in the presence of ouabain (30 μM) to inhibit Na+ efflux through Na+/K+ exchanger. Following the pre-incubation phase, hNav1.8 channels were stimulated with 10 μM of the pyrethroid deltamethrin to prevent channel inactivation. The assay was run for 15 minutes with vehicle and 30 μM tetracaine serving as negative and positive controls, respectively. The peak change in fluorescence relative to negative and positive control wells was calculated and fit with a logistic equation to determine IC50.
PatchXpress Nav1.8 Inhibition Assay
HEK-Nav1.8 β1/β2 cells were recorded in whole cell patch-clamp using the PatchXpress automated patch clamp platforms (Molecular Devices). Cell suspensions were obtained by trypsinization of adherent monolayers, followed by gentle rocking for minimally 30 min. Compounds were prepared from 10 mM DMSO stocks.
Nav1.8 channel variants were evaluated using Protocol 1 in which cells were initially voltage clamped at a holding potential of −100 mV to maintain Nav1.8 in a closed resting state. After current amplitude becomes stable, the mid-point voltage of steady state inactivation was determined for each cell using a series of 5 sec conditioning steps to increasingly depolarized voltages (−100 to 0 mV) The holding potential was then reset to a voltage that produces ˜50% inactivation (Vhalf-set automatically via PatchXpress scripts) so that closed and inactivated channel inhibition could be assessed. Protocol 1 was run at a frequency of 0.1 Hz until current amplitude is steady (automatically determined by PatchXpress scripts). The effect of test reagent on Nav current amplitude was monitored using custom PatchXpress stability scripts which determines the timing of compound addition and washout.
Data were processed and analyzed using DataXpress 2.0 (Molecular Devices). […]

T1 sequence (Q9Y5Y9 whole entry): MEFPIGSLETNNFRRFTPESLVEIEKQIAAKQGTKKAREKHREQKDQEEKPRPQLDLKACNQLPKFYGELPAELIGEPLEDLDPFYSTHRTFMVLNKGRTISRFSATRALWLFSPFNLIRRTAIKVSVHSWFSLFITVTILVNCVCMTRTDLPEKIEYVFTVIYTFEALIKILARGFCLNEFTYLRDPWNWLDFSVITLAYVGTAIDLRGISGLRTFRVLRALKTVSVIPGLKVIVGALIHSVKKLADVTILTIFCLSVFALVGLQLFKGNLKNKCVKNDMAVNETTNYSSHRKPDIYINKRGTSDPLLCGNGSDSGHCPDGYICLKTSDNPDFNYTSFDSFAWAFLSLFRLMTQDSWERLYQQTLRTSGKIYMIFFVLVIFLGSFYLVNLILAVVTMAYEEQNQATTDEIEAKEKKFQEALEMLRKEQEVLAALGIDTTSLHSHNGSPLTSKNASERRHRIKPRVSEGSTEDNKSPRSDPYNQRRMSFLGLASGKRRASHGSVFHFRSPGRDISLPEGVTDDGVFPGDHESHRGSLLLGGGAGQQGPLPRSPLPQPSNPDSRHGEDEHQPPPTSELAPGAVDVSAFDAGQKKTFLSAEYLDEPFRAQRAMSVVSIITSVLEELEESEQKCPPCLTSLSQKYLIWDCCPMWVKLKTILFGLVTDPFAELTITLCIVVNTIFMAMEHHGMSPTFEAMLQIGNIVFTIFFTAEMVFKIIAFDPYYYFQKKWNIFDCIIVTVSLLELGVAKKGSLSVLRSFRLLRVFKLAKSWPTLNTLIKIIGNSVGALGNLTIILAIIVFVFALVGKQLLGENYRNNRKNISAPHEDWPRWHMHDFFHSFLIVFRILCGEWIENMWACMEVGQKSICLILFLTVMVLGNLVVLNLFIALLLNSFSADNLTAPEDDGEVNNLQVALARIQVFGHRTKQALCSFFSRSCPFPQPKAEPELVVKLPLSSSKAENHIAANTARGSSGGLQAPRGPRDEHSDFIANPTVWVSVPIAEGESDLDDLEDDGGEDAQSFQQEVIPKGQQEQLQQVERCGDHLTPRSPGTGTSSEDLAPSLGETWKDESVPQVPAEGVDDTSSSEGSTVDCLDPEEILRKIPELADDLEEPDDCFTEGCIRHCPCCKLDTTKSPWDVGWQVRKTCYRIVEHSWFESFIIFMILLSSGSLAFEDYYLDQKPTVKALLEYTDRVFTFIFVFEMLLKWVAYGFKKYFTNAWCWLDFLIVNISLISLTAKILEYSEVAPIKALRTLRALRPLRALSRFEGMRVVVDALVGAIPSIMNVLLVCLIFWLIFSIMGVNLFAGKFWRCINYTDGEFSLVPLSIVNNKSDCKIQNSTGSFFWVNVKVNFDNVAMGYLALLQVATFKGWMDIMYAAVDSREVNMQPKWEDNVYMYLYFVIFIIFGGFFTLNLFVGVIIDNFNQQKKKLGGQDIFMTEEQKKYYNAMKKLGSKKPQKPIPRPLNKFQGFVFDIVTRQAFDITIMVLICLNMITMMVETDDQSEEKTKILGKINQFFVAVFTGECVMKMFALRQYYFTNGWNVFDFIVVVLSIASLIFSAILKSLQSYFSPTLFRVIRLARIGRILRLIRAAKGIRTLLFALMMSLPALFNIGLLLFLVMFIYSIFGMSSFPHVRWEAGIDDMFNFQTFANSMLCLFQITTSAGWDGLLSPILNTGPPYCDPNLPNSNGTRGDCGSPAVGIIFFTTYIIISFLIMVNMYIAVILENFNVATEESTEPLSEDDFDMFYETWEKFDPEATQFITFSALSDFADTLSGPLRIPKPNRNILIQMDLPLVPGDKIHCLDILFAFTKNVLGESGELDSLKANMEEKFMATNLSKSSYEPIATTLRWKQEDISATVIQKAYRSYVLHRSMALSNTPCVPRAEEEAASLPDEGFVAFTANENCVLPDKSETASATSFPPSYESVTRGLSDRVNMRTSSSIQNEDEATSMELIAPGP
T1 sequence (Q07699 19-218 partner): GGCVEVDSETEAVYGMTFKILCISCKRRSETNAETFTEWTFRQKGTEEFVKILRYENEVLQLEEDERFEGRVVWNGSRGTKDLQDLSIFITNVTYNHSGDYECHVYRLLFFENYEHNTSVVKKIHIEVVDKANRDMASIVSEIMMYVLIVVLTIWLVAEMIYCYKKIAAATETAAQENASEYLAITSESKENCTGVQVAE

In the case of `O=C(NCc1cccnc1N1CCCOCC1)c1cnnc(-c2ccc(OCC3CC3)c(Cl)c2)c1` [Example 21, 6-[3-chloro-4-(cyclopropylmethoxy)phenyl]-N-[[2-(1,4-oxazepan-4-yl)-3-pyridyl]methyl]pyridazine-4-carboxamide], the IC50 is under 500 nM.
Take `O=C(NCc1cccnc1N1CCOCC1)c1cnnc(-c2ccc(OCC3CC3)cc2)c1` [Example 8, 6-[4-(cyclopropylmethoxy)phenyl]-N-[(2-morpholino-3-pyridyl)methyl]pyridazine-4-carboxamide]: the IC50 is under 500 nM.
Take `O=C(NCc1cccnc1OCC(F)(F)F)c1cnnc(-c2ccc(OCC3CC3)c(Cl)c2)c1` [Example 20, 6-[3-chloro-4-(cyclopropylmethoxy)phenyl]-N-[[2-(2,2,2-trifluoroethoxy)-3-pyridyl]methyl]pyridazine-4-carboxamide]: the IC50 was under 500 nM.
With `O=C(NCc1cc(F)cnc1N1CCOCC1)c1cnnc(-c2ccc(OCC3CC3)cc2)c1` [Example 49, 6-[4-(cyclopropylmethoxy)phenyl]-N-[(5-fluoro-2-morpholino-3-pyridyl)methyl]pyridazine-4-carboxamide], the IC50 was over 1000 nM.
Under `COc1ncccc1CNC(=O)c1cnnc(-c2ccc(OCC3CC3)cc2)c1` [Example 48, 6-[4-(cyclopropylmethoxy)phenyl]-N-[(2-methoxy-3-pyridyl)methyl]pyridazine-4-carboxamide] stands over 1000 nM.
